This passage reports TGI results from PubChem BioAssay (NCI).

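In this assay, cells in 96-well plates receive the compound at five concentrations for 48 hours. Endpoints are linearly interpolated between the surrounding concentrations. The concentration for full growth arrest is given as TGI.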

For orientation: TGI means the concentration giving total growth inhibition. Low values mean more potent growth arrest, high ones less potent growth arrest.

The test system of the first test is T-47D breast. Description: DTP human tumour cell line panel, 48 h.
`COC(=O)C1C(C(=O)OC)N(Cc2ccccc2)C(=O)N1Cc1ccccc1` (centres undefined) returned a TGI above 100 µM.

With `CCOC(=O)c1csc(NC(=O)CCN(CC)CC)n1`, the TGI was above 100 µM.

`CCN1c2ccccc2-n2c(C)nnc2-c2c1n[nH]c2-c1ccccc1` had a total growth inhibition concentration (TGI) of 74.7 µM.

As to `C[C@]12CC[C@@H]3c4ccc(O)cc4CC[C@H]3[C@@H]1C/C(=C\c1ccncc1)C2=O`, the TGI is above 100 µM.

The next test deals with NCI-H226 lung. Description: DTP human tumour cell line panel, 48 h.
The molecule `COC(=O)C1C(C(=O)OC)N(Cc2ccccc2)C(=O)N1Cc1ccccc1` (centres undefined) showed a TGI above 100 µM.

Take `CCOC(=O)c1csc(NC(=O)CCN(CC)CC)n1`: the TGI is 89 µM.

`C[C@]12CC[C@@H]3c4ccc(O)cc4CC[C@H]3[C@@H]1C/C(=C\c1ccncc1)C2=O` gave a TGI of 68.6 µM. The TGI values of the last two molecules are within 1.5-fold of each other.

For the molecule `C=CCN1C(=O)/C(=C/c2ccccc2)N=C1SC1OC(COC(=O)c2ccccc2)C(OC(=O)c2ccccc2)C1OC(=O)c1ccccc1` (centres undefined), the TGI is above 100 µM.

Molecule `C#CCCCCC#Cc1ccccc1C(=O)OC` came in with a concentration for total growth inhibition (TGI) above 100 µM.

Regarding `COCCOCOc1ccc(OCc2ccccc2)cc1`, the TGI is above 100 µM.

Regarding `C=C(C(=O)C(=O)Oc1ccc(Cl)cc1)C(=O)c1ccc(C)cc1`, the concentration for total growth inhibition (TGI) was above 100 µM.

The test system of the next test is DMS 273 small cell lung. Description: DTP human tumour cell line panel, 48 h.
Regarding `C#CCCCCC#Cc1ccccc1C(=O)OC`, the concentration for total growth inhibition (TGI) was above 100 µM.

Molecule `COCCOCOc1ccc(OCc2ccccc2)cc1` yielded a TGI above 100 µM.

Regarding `C=C(C(=O)C(=O)Oc1ccc(Cl)cc1)C(=O)c1ccc(C)cc1`, the TGI is above 100 µM.

In the next test the test system is OVCAR-4 ovarian. Description: DTP human tumour cell line panel, 48 h.
Regarding `COC(=O)C1C(C(=O)OC)N(Cc2ccccc2)C(=O)N1Cc1ccccc1` (centres undefined), the TGI was above 100 µM.

Molecule `CCOC(=O)c1csc(NC(=O)CCN(CC)CC)n1` showed a TGI above 100 µM.

Molecule `CCN1c2ccccc2-n2c(C)nnc2-c2c1n[nH]c2-c1ccccc1` yielded a TGI above 100 µM.

In turn, `C[C@]12CC[C@@H]3c4ccc(O)cc4CC[C@H]3[C@@H]1C/C(=C\c1ccncc1)C2=O` displayed a TGI above 100 µM.

`C=CCN1C(=O)/C(=C/c2ccccc2)N=C1SC1OC(COC(=O)c2ccccc2)C(OC(=O)c2ccccc2)C1OC(=O)c1ccccc1` (centres undefined) showed a TGI above 100 µM.

The molecule `C#CCCCCC#Cc1ccccc1C(=O)OC` returned a TGI above 100 µM.

Molecule `COCCOCOc1ccc(OCc2ccccc2)cc1` yielded a TGI above 51 µM.

Turning to `C=C(C(=O)C(=O)Oc1ccc(Cl)cc1)C(=O)c1ccc(C)cc1`, the total growth inhibition concentration (TGI) was above 100 µM.

Another test deals with MOLT-4 leukemia. Description: DTP human tumour cell line panel, 48 h.
Molecule `COC(=O)C1C(C(=O)OC)N(Cc2ccccc2)C(=O)N1Cc1ccccc1` (centres undefined) showed a TGI above 100 µM.

Molecule `CCOC(=O)c1csc(NC(=O)CCN(CC)CC)n1` came in with a TGI of 90.3 µM.

With `CCN1c2ccccc2-n2c(C)nnc2-c2c1n[nH]c2-c1ccccc1`, the concentration for total growth inhibition (TGI) came out at 50.7 µM.

`C[C@]12CC[C@@H]3c4ccc(O)cc4CC[C@H]3[C@@H]1C/C(=C\c1ccncc1)C2=O` showed a TGI above 100 µM.

`C=CCN1C(=O)/C(=C/c2ccccc2)N=C1SC1OC(COC(=O)c2ccccc2)C(OC(=O)c2ccccc2)C1OC(=O)c1ccccc1` (centres undefined) gave a TGI above 100 µM.

In the case of `C#CCCCCC#Cc1ccccc1C(=O)OC`, the concentration for total growth inhibition (TGI) came out at 38.3 µM.

For `C/C(CCOC1CCCCO1)=C(\C)[Si](C)(C)C` (centres undefined), the TGI is above 100 µM.

With `COCCOCOc1ccc(OCc2ccccc2)cc1`, the TGI is above 100 µM.

In the case of `C=C(C(=O)C(=O)Oc1ccc(Cl)cc1)C(=O)c1ccc(C)cc1`, the TGI is above 100 µM.

The next test has as its system NCI-H522 lung. Description: DTP human tumour cell line panel, 48 h.
`COC(=O)C1C(C(=O)OC)N(Cc2ccccc2)C(=O)N1Cc1ccccc1` (centres undefined) displayed a TGI of 96.3 µM.

For `CCN1c2ccccc2-n2c(C)nnc2-c2c1n[nH]c2-c1ccccc1`, the total growth inhibition concentration (TGI) turned out to be 5.98 µM.

With `C=CCN1C(=O)/C(=C/c2ccccc2)N=C1SC1OC(COC(=O)c2ccccc2)C(OC(=O)c2ccccc2)C1OC(=O)c1ccccc1` (centres undefined), the TGI is 41.5 µM.

Molecule `C/C(CCOC1CCCCO1)=C(\C)[Si](C)(C)C` (centres undefined) gave a TGI above 100 µM.

For the molecule `C=C(C(=O)C(=O)Oc1ccc(Cl)cc1)C(=O)c1ccc(C)cc1`, the TGI came out at 40 µM.

In the next test the test system is SNB-19 CNS. Description: DTP human tumour cell line panel, 48 h.
`COC(=O)C1C(C(=O)OC)N(Cc2ccccc2)C(=O)N1Cc1ccccc1` (centres undefined) had a TGI above 100 µM.

`CCOC(=O)c1csc(NC(=O)CCN(CC)CC)n1` registered a TGI above 100 µM.

In turn, `CCN1c2ccccc2-n2c(C)nnc2-c2c1n[nH]c2-c1ccccc1` showed a TGI above 100 µM.

As for `C[C@]12CC[C@@H]3c4ccc(O)cc4CC[C@H]3[C@@H]1C/C(=C\c1ccncc1)C2=O`, the TGI is above 100 µM.

As to `C#CCCCCC#Cc1ccccc1C(=O)OC`, the TGI was above 100 µM.

`C/C(CCOC1CCCCO1)=C(\C)[Si](C)(C)C` (centres undefined) returned a TGI above 100 µM.

Consider `COCCOCOc1ccc(OCc2ccccc2)cc1`, for which the TGI was above 100 µM.

Consider `C=C(C(=O)C(=O)Oc1ccc(Cl)cc1)C(=O)c1ccc(C)cc1`, for which the total growth inhibition concentration (TGI) is above 100 µM.

The subject of another test is MCF7 breast. Description: DTP human tumour cell line panel, 48 h.
`COC(=O)C1C(C(=O)OC)N(Cc2ccccc2)C(=O)N1Cc1ccccc1` (centres undefined) gave a TGI above 100 µM.

`CCOC(=O)c1csc(NC(=O)CCN(CC)CC)n1` showed a concentration for total growth inhibition (TGI) of 55.5 µM. This lies in the double-digit micromolar range.

As to `C[C@]12CC[C@@H]3c4ccc(O)cc4CC[C@H]3[C@@H]1C/C(=C\c1ccncc1)C2=O`, the TGI is above 100 µM.

With `C=CCN1C(=O)/C(=C/c2ccccc2)N=C1SC1OC(COC(=O)c2ccccc2)C(OC(=O)c2ccccc2)C1OC(=O)c1ccccc1` (centres undefined), the TGI was above 100 µM.

For `COCCOCOc1ccc(OCc2ccccc2)cc1`, the TGI was above 51.4 µM.

Another test concerns MDA-N. Description: DTP human tumour cell line panel, 48 h.
For the molecule `COC(=O)C1C(C(=O)OC)N(Cc2ccccc2)C(=O)N1Cc1ccccc1` (centres undefined), the total growth inhibition concentration (TGI) was above 100 µM.

With `CCOC(=O)c1csc(NC(=O)CCN(CC)CC)n1`, the TGI is above 100 µM.

The molecule `CCN1c2ccccc2-n2c(C)nnc2-c2c1n[nH]c2-c1ccccc1` had a TGI above 100 µM.

Take `C[C@]12CC[C@@H]3c4ccc(O)cc4CC[C@H]3[C@@H]1C/C(=C\c1ccncc1)C2=O`: the TGI is above 100 µM.

The subject of the next test is XF 498 CNS. Description: DTP human tumour cell line panel, 48 h.
As for `C#CCCCCC#Cc1ccccc1C(=O)OC`, the total growth inhibition concentration (TGI) is above 100 µM.
